Measurements taken from US20210403485A1, “PYRAZOLOPYRIMIDINE DERIVATIVE AS SELECTIVE TRK INHIBITOR” (SHANDONG LUYE PHARMACEUTICAL CO., LTD., priority 2018, published 2021).
Blank lines part the entries; values can stand above or below the molecule they belong to.

How the values were obtained:
TrkA = molecular target: T1, TrkA (Homo sapiens, UniProt P04629); test: Kinase inhibitory activity (33P-ATP, filtration-binding method, Reaction Biology Corp.); assay type: biochemical; details: read-out: Half maximal inhibitory concentration IC50 for kinases, TrkA
T1 construct: purchased Reaction Biology Corp
T1 sequence (P04629 33-796): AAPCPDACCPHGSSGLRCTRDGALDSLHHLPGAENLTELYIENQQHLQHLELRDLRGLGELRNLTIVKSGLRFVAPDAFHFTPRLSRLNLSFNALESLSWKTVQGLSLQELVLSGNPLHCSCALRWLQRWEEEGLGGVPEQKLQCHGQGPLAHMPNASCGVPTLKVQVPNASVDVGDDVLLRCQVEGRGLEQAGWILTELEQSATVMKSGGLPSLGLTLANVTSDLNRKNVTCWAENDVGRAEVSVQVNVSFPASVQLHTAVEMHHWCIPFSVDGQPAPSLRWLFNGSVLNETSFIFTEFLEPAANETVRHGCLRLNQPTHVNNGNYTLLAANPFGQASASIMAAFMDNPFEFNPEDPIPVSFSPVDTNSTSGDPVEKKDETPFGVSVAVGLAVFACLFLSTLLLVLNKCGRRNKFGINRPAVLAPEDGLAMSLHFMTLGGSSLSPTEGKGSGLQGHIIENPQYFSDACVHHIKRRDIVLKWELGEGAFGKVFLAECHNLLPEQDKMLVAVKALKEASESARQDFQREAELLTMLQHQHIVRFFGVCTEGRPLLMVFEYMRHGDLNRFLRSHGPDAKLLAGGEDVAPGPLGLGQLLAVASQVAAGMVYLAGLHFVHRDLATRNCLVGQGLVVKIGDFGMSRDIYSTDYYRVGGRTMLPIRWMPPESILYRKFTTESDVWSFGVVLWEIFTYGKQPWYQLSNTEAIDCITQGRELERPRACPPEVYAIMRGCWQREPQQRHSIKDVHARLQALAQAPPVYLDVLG
Protocol: (§1) The mixture was incubated at room temperature for 20 minutes, added with ^33P-ATP at a certain concentration to start the reaction, and then incubated at room temperature for 120 minutes. Finally, the radioactivity of the reactant was detected by the filtration-binding method. The final kinase activity was expressed as the ratio of the remaining kinase activity in the test sample to the kinase activity of the DMSO control. The dose-response curves were fitted and IC50 values were calculated by GraphPad software.

BaF3 ETV6-NTRK3-G623R = molecular target: T2, BaF3 ETV6-NTRK3-G623R (Homo sapiens, UniProt Q16288, G623R, cells depend on it); test: Inhibitory activity against cell proliferation (CellTiter-Glo, 72 hours); assay type: cell-based; details: read-out: Half maximal inhibitory concentration IC50 of cells, BaF3 ETV6-NTRK3-G623R
T2 construct: fused on or other part: N-terminal part of ETV6 (TEL) as fusion partner (part of the key); P41212 (Transcription factor ETV6)
T2 sequence (Q16288 whole entry G623R, the tested form may be a part): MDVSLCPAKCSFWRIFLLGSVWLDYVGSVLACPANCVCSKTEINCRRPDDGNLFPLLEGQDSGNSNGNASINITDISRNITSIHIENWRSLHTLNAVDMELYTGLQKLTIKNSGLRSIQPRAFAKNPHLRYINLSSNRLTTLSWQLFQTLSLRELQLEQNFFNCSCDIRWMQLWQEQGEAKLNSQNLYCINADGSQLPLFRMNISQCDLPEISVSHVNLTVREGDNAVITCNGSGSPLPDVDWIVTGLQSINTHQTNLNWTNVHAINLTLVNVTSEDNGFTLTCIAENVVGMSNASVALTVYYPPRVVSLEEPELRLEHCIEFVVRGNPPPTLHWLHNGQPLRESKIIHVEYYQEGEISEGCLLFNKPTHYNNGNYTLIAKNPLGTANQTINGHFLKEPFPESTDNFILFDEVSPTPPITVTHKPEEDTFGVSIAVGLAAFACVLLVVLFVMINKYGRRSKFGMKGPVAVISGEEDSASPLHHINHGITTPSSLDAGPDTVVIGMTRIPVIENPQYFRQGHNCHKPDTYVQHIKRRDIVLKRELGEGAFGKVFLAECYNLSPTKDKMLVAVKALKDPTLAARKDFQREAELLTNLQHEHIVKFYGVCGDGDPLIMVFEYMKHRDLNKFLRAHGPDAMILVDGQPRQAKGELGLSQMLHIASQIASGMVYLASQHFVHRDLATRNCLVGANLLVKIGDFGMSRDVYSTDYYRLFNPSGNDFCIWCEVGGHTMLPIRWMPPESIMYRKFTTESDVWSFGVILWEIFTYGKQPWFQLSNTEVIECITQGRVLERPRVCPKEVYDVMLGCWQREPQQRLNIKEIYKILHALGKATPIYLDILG
Protocol: (§2) Adenosine Triphosphate (ATP) is an energy carrier commonly used in various life activities in nature, and is the minimum unit for energy storage and transfer. The CellTiter-Glo™ cell viability assay kit uses luciferase as an assay agent, which requires the involvement of ATP in luminescence. The CellTiter-Glo™ reagent is added into cell culture medium to measure the luminescence value. The luminescence signal is directly proportional to the amount of ATP in the system, and the ATP is positively correlated with the number of viable cells. Therefore, the proliferation of cells can be detected by detecting the ATP content using the CellTiter-Glo kit. In this test, the cell lines used are Ba/F3 LMNA-NTRK1-WT, Ba/F3 LMNA-NTRK1-F589L, BaF3 LMNA-NTRK1-G595R, BaF3 LMNA-NTRK1-G667A, BaF3 ETV6-NTRK3-WT, BaF3 ETV6-NTRK3-G623R, and Ba/F3 SLC34A2-ROS1-WT stable cell strains, 5000 cells/well.
(§3) a) Cells in the logarithmic growth phase were collected and counted using a […]. The cell viability was detected by the trypan blue exclusion method, and the cell viability was kept over 90%.
(§4) b) The cell concentration was adjusted; 90 μL of the cell suspension was added to a 96-well plate.
c) Cells in the 96-well plate were incubated overnight at 37° C. with 5% CO2 and 95% humidity.
(§5) a) A 10-fold compound solution was prepared, with the highest concentration being 10 μM (a total of 9 concentrations, 3-fold dilution). 10 μL of compound solution was added to each well of a 96-well plate inoculated with cells, and three duplicate wells were set for each compound concentration.
b) The cells in the 96-well plate added with compound were incubated for 72 hours at 37° C. with 5% CO2 and 95% humidity, followed by the CTG (CellTiter-Glo) analysis.
(§6) a) The CTG reagent was thawed and the cell plate was equilibrated to room temperature for 30 minutes.
(§7) b) An equal volume of CTG solution was added to each well.
(§8) c) The plate was shaken on an orbital shaker for 5 minutes to lyse the cells.
(§9) d) The cell plate was placed at room temperature for 20 minutes to stabilize the luminescence signal.
(§10) e) The luminescence value was read.
(§11) The data were analyzed using GraphPad Prism 5.0 software, fitted with nonlinear S-curve regression to give dose-response curves, and IC50 values were calculated therefrom.

[1] = Pharmacokinetic test of compounds in rats (plasma, LC/MS/MS); assay type: in vivo, male SD rats
Protocol: (§12) Experimental purpose: male SD rats aged 7-9 weeks were selected as test animals, and the drug concentrations of the compounds in plasma at different time points after single intravenous injection (IV) and intragastric administration (PO) of the compounds were measured by an LC/MS/MS method, so that the pharmacokinetic behavior of the compounds disclosed herein in rats was studied, and the pharmacokinetic characteristic of the compounds was evaluated.
(§13) Drug preparation: the compounds were all prepared into clear solution by taking 5% DMSO+10% solutol+85% water as vehicle, and were used for administration in IV and PO groups. The dose of each compound administered was: IV, 3 mg/kg; PO, 10 mg/kg.

TrkC = molecular target: T3, TrkC (Homo sapiens, UniProt Q16288); test: Kinase inhibitory activity (33P-ATP, filtration-binding method, Reaction Biology Corp.); assay type: biochemical; details: read-out: Half maximal inhibitory concentration IC50 for kinases, TrkC
T3 construct: purchased Reaction Biology Corp
T3 sequence (Q16288 32-839): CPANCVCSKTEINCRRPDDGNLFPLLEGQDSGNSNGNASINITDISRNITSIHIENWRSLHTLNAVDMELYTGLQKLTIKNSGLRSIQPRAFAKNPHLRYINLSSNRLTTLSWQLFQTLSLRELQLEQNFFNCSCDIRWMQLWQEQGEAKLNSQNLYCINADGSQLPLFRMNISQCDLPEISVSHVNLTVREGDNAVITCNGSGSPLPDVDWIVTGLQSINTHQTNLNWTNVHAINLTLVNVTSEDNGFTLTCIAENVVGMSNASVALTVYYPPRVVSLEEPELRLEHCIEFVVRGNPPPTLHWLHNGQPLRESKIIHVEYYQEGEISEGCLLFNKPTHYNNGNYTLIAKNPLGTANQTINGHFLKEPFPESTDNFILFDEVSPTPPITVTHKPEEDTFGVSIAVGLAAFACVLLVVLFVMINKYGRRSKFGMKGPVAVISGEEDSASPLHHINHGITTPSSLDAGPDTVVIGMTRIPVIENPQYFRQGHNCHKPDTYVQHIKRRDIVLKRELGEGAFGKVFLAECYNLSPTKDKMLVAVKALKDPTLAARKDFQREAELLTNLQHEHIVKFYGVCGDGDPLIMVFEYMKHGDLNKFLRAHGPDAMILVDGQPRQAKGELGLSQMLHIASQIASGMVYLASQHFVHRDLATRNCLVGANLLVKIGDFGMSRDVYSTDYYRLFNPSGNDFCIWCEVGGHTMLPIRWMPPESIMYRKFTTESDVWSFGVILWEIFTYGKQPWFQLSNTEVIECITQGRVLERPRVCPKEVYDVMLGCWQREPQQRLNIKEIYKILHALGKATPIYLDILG
Protocol: as §1

Ros1 = molecular target: T4, Ros1 (Homo sapiens, UniProt P08922); test: as above; assay type: biochemical; details: read-out: Half maximal inhibitory concentration IC50 for kinases, Ros1
T4 construct: purchased Reaction Biology Corp
T4 sequence (P08922 28-2347): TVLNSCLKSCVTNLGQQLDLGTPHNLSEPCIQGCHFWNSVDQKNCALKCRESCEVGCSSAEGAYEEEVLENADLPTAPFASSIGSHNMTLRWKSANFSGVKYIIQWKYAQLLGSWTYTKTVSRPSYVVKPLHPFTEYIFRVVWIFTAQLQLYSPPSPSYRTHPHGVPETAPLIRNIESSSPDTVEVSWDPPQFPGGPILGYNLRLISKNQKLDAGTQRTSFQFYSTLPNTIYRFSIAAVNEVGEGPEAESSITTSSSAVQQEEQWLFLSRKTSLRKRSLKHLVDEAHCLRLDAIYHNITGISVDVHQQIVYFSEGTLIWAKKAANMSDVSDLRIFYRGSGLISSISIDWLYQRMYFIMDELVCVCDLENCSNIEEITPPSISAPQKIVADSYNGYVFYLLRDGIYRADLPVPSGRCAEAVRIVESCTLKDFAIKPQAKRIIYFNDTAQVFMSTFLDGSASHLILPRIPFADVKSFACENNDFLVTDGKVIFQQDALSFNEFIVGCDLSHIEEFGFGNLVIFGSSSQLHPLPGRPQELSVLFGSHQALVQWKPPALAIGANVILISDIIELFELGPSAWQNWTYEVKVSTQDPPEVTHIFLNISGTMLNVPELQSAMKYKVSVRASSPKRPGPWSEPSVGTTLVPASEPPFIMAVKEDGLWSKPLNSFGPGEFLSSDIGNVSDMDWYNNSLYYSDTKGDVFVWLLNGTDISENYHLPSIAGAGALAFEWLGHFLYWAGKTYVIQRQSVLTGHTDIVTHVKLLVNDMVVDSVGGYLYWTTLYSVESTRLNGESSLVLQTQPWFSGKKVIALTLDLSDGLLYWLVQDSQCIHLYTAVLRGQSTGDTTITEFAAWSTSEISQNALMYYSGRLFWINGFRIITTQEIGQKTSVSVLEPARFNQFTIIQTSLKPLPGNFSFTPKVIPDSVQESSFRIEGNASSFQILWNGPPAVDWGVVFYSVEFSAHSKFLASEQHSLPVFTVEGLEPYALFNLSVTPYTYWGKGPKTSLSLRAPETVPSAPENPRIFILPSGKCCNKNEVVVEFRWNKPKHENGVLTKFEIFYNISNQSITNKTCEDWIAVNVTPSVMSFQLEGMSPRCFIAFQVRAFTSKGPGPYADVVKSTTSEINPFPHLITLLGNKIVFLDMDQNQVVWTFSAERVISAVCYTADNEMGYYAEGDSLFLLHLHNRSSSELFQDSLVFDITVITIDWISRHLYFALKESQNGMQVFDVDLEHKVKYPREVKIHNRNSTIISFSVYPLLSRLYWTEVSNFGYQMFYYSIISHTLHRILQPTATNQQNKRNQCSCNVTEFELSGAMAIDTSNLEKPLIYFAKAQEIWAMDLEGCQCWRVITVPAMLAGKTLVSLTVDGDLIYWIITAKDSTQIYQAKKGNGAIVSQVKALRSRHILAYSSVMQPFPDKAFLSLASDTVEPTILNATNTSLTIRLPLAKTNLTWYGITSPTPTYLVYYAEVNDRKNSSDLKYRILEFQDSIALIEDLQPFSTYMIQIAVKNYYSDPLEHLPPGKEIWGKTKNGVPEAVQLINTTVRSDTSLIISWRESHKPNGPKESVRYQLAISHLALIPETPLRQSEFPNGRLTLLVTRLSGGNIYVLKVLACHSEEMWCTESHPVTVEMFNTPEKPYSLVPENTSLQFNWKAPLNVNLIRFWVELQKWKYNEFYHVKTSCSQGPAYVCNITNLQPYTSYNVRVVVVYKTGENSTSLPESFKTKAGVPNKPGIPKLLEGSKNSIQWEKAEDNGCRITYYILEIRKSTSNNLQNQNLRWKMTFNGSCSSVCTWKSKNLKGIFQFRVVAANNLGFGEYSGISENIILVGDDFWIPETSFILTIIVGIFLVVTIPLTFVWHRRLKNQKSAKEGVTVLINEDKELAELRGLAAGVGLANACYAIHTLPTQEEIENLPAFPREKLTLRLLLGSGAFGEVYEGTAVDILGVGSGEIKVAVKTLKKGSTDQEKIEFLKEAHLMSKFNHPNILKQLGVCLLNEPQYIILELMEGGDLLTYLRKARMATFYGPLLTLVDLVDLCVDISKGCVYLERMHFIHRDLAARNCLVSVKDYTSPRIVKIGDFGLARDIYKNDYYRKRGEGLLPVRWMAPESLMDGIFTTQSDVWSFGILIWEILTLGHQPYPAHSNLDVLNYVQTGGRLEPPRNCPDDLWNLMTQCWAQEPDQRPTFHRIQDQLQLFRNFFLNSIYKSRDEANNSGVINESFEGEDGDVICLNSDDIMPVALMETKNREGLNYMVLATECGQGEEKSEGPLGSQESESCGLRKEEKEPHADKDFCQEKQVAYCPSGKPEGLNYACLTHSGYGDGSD
Protocol: as §1

TrkA-G595R = molecular target: T5, TrkA-G595R (Homo sapiens, UniProt P04629, G595R); test: as above; assay type: biochemical; details: read-out: Half maximal inhibitory concentration IC50 for kinases, TrkA-G595R
T5 construct: purchased Reaction Biology Corp
T5 sequence (P04629 33-796 G595R): as the sequence (P04629 33-796) above, with G563R counted along it
Protocol: as §1

ALK = molecular target: T6, ALK (Homo sapiens, UniProt Q9UM73); test: as above; assay type: biochemical; details: read-out: Half maximal inhibitory concentration IC50 for kinases, ALK
T6 construct: purchased Reaction Biology Corp
Protocol: as §1

TrkA-G667C = molecular target: T7, TrkA-G667C (Homo sapiens, UniProt P04629, G667C); test: as above; assay type: biochemical; details: read-out: Half maximal inhibitory concentration IC50 for kinases, TrkA-G667C
T7 construct: purchased Reaction Biology Corp
T7 sequence (P04629 33-796 G667C): as the sequence (P04629 33-796) above, with G635C counted along it
Protocol: as §1

BaF3 LMNA-NTRK1-G595R = molecular target: T8, BaF3 LMNA-NTRK1-G595R (Homo sapiens, UniProt P04629, G595R, cells depend on it); test: Inhibitory activity against cell proliferation (CellTiter-Glo, 72 hours); assay type: cell-based; details: read-out: Half maximal inhibitory concentration IC50 of cells, BaF3 LMNA-NTRK1-G595R
T8 construct: fused on or other part: N-terminal part of LMNA as fusion partner (part of the key); P02545 (Prelamin-A/C)
Protocol: as §2, with “kit.” for “kit. In this test, the cell lines used are Ba/F3 LMNA-NTRK1-WT, Ba/F3 LMNA-NTRK1-F589L, BaF3 LMNA-NTRK1-G595R, BaF3 LMNA-NTRK1-G667A, BaF3 ETV6-NTRK3-WT, BaF3 ETV6-NTRK3-G623R, and Ba/F3 SLC34A2-ROS1-WT stable cell strains, 5000 cells/well.”
as §3, §4, §5, §6, §7, §8, §9, §10, §11

BaF3 ETV6-NTRK3-WT = molecular target: T9, BaF3 ETV6-NTRK3-WT (Homo sapiens, UniProt Q16288); test: as above; assay type: cell-based; details: read-out: Half maximal inhibitory concentration IC50 of cells, BaF3 ETV6-NTRK3-WT
T9 construct: fused on or other part: N-terminal part of ETV6 (TEL) as fusion partner (part of the key); P41212 (Transcription factor ETV6)
T9 sequence (Q16288 whole entry, change not shown, the tested form may be a part): as the sequence (Q16288 whole entry G623R, the tested form may be a part) above, with R623G counted along it
Protocol: as §2, with “kit.” for “kit. In this test, the cell lines used are Ba/F3 LMNA-NTRK1-WT, Ba/F3 LMNA-NTRK1-F589L, BaF3 LMNA-NTRK1-G595R, BaF3 LMNA-NTRK1-G667A, BaF3 ETV6-NTRK3-WT, BaF3 ETV6-NTRK3-G623R, and Ba/F3 SLC34A2-ROS1-WT stable cell strains, 5000 cells/well.”
as §3, §4, §5, §6, §7, §8, §9, §10, §11

Ba/F3 LMNA-NTRK1-WT = molecular target: T10, Ba/F3 LMNA-NTRK1-WT (Homo sapiens, UniProt P04629); test: as above; assay type: cell-based; details: read-out: Half maximal inhibitory concentration IC50 of cells, Ba/F3 LMNA-NTRK1-WT
T10 construct: fused on or other part: N-terminal part of LMNA as fusion partner (part of the key); P02545 (Prelamin-A/C)
Protocol: as §2, with “kit.” for “kit. In this test, the cell lines used are Ba/F3 LMNA-NTRK1-WT, Ba/F3 LMNA-NTRK1-F589L, BaF3 LMNA-NTRK1-G595R, BaF3 LMNA-NTRK1-G667A, BaF3 ETV6-NTRK3-WT, BaF3 ETV6-NTRK3-G623R, and Ba/F3 SLC34A2-ROS1-WT stable cell strains, 5000 cells/well.”
as §3, §4, §5, §6, §7, §8, §9, §10, §11

BaF3 LMNA-NTRK1-G667A = molecular target: T11, BaF3 LMNA-NTRK1-G667A (Homo sapiens, UniProt P04629, G667A, cells depend on it); test: as above; assay type: cell-based; details: read-out: Half maximal inhibitory concentration IC50 of cells, BaF3 LMNA-NTRK1-G667A
T11 construct: fused on or other part: N-terminal part of LMNA as fusion partner (part of the key); P02545 (Prelamin-A/C)
Protocol: as §2, with “kit.” for “kit. In this test, the cell lines used are Ba/F3 LMNA-NTRK1-WT, Ba/F3 LMNA-NTRK1-F589L, BaF3 LMNA-NTRK1-G595R, BaF3 LMNA-NTRK1-G667A, BaF3 ETV6-NTRK3-WT, BaF3 ETV6-NTRK3-G623R, and Ba/F3 SLC34A2-ROS1-WT stable cell strains, 5000 cells/well.”
as §3, §4, §5, §6, §7, §8, §9, §10, §11

Ba/F3 LMNA-NTRK1-F589L = molecular target: T12, Ba/F3 LMNA-NTRK1-F589L (Homo sapiens, UniProt P04629, F589L, cells depend on it); test: as above; assay type: cell-based; details: read-out: Half maximal inhibitory concentration IC50 of cells, Ba/F3 LMNA-NTRK1-F589L
T12 construct: fused on or other part: N-terminal part of LMNA as fusion partner (part of the key); P02545 (Prelamin-A/C)
Protocol: as §2, with “kit.” for “kit. In this test, the cell lines used are Ba/F3 LMNA-NTRK1-WT, Ba/F3 LMNA-NTRK1-F589L, BaF3 LMNA-NTRK1-G595R, BaF3 LMNA-NTRK1-G667A, BaF3 ETV6-NTRK3-WT, BaF3 ETV6-NTRK3-G623R, and Ba/F3 SLC34A2-ROS1-WT stable cell strains, 5000 cells/well.”
as §3, §4, §5, §6, §7, §8, §9, §10, §11

[2] = Pharmacokinetic test of compounds in mice (plasma, LC/MS/MS); assay type: in vivo, male CD-1 mice
Protocol: as §12, with “CD-1 mice” for “SD rats”, “mice” for “rats”
as §13

[3] = PO, 10 mg/kg, read-out: Peak concentration Cmax

Structure (SMILES): C[C@H]1CNC(=O)c2cnn3ccc(nc23)N2CCOC[C@H]2c2cc(F)cnc2O1 [WX004A]
IC50 (TrkA): 441 nM

Structure (SMILES): C[C@H]1CNC(=O)c2cnn3ccc(nc23)N2CCOC[C@@H]2c2cc(F)cnc2O1 [WX004B]
GI50 (BaF3 ETV6-NTRK3-G623R): 3.2 nM
Apparent clearance Cl ([1]; IV, 3 mg/kg): 30.9 mL/min/kg
Apparent volume of distribution Vd ([1]; IV, 3 mg/kg): 1.4 L/kg
Area under the curve AUC0-last ([1]; IV, 3 mg/kg): 4.076 µM·h
Half-life T1/2 ([1]; IV, 3 mg/kg): 36 min
Area under the curve AUC0-last ([1]; PO, 10 mg/kg): 4.715 µM·h
Bioavailability F % ([1]; PO, 10 mg/kg): 35%
Time to peak Tmax ([1]; PO, 10 mg/kg): 48 min
Cmax [1, 3]: 1.77 µM
IC50 (TrkC): 0.3 nM
IC50 (Ros1): 8.1 nM
IC50 (TrkA): 2.7 nM
IC50 (TrkA-G595R): 2.7 nM
IC50 (ALK): 134 nM
IC50 (TrkA-G667C): 18.2 nM
GI50 (BaF3 LMNA-NTRK1-G595R): 1.2 nM
GI50 (BaF3 ETV6-NTRK3-WT): 1.5 nM
GI50 (Ba/F3 LMNA-NTRK1-WT): 0.8 nM
GI50 (BaF3 LMNA-NTRK1-G667A): 3.9 nM
GI50 (Ba/F3 LMNA-NTRK1-F589L): 37.4 nM
Apparent clearance Cl ([2]; IV, 3 mg/kg): 8.14 mL/min/kg
Apparent volume of distribution Vd ([2]; IV, 3 mg/kg): 0.60 L/kg
Area under the curve AUC0-last ([2]; IV, 3 mg/kg): 15.393 µM·h
Half-life T1/2 ([2]; IV, 3 mg/kg): 63 min
Area under the curve AUC0-last ([2]; PO, 10 mg/kg): 37.294 µM·h
Bioavailability F % ([2]; PO, 10 mg/kg): 73%
Time to peak Tmax ([2]; PO, 10 mg/kg): 30 min
Cmax [2, 3]: 11.1 µM

Structure (SMILES): O=C1NC2(CC2)COc2ncc(F)cc2C2COCCN2c2ccn3ncc1c3n2 (single isomer, unassigned) [WX001A]
IC50 (TrkA): > 1000 nM

The next lines start with the values.

IC50 (TrkA): > 1000 nM
Structure (SMILES): O=C1NC2(CC2)CNc2ncc(F)cc2C2COCCN2c2ccn3ncc1c3n2 (single isomer, unassigned) [WX010B]

IC50 (TrkA): > 1000 nM
Structure (SMILES): O=C1NC2(CC2)COc2ncc(F)cc2[C@@H]2CCOCCN2c2ccn3ncc1c3n2 [WX009B]

IC50 (TrkC): 0.1 nM
IC50 (Ros1): 3.1 nM
IC50 (TrkA): 4.7 nM
IC50 (TrkA-G595R): 0.3 nM
IC50 (ALK): 103 nM
IC50 (TrkA-G667C): 0.5 nM
Structure (SMILES): O=C1N[C@@H]2COC[C@@H]2Oc2ncc(F)cc2[C@H]2COCCN2c2ccn3ncc1c3n2 [WX005A]
